Laboratory results from ChEMBL document CHEMBL1201862, “PubChem BioAssay data set” (2004).
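Each compound was tested at five concentrations against cells in 96-well plates for 48 hours. GI50 is the concentration that inhibits growth by half.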 Calls of active or inactive are those of the source. No stated cut-off is given here; in the data, active = GI50 up to about 1.1 µM and inactive = higher.

Assays:
Assay in all cases: DTP human tumour cell line panel, 48 h
T47D = test system: T47D
ACHN = test system: ACHN
MDA-MB-231 = test system: MDA-MB-231
NCI-H23 = test system: NCI-H23
SK-MEL-5 = test system: SK-MEL-5
MDA-MB-435 = test system: MDA-MB-435
MDA-N = test system: MDA-N
SK-MEL-2 = test system: SK-MEL-2
UACC-257 = test system: UACC-257
COLO 205 = test system: COLO 205
CCRF-CEM = test system: CCRF-CEM
PC-3 = test system: PC-3
BT-549 = test system: BT-549
IGROV-1 = test system: IGROV-1
UO-31 = test system: UO-31
NCI/ADR-RES = test system: NCI/ADR-RES
Hs-578T = test system: Hs-578T
MCF7 = test system: MCF7
HCC 2998 = test system: HCC 2998

Measured: GI50

COC1CC(OC2CCC3(C)C(=CCC4C3C(OC(C)=O)C(OC(=O)CC(C)C)C3(C)C(C(C)=O)CCC43O)C2)OC(C)C1OC1CC(OC)C(OC2CC(OC)C(OC3OC(C)C(OC4OC(CO)C(O)C(O)C4O)C(OC)C3O)C(C)O2)C(C)O1 (configuration not stated)
inactive: T47D > 75 µM | ACHN > 75 µM | MDA-MB-231 > 75 µM | NCI-H23 > 75 µM | SK-MEL-5 > 75 µM | MDA-MB-435 > 75 µM | MDA-N > 75 µM | SK-MEL-2 > 75 µM | UACC-257 > 75 µM | COLO 205 > 75 µM | CCRF-CEM > 7.5 µM | PC-3 > 75 µM | BT-549 > 75 µM | IGROV-1 > 75 µM | UO-31 > 75 µM | NCI/ADR-RES > 75 µM | Hs-578T > 75 µM | MCF7 > 75 µM | HCC 2998 > 75 µM

O=S(=O)(Nc1ccccc1)c1ccc(-c2c3nc(c(-c4ccc(S(=O)(=O)Nc5ccccc5)cc4)c4ccc([nH]4)c(-c4ccc(S(=O)(=O)Nc5ccccc5)cc4)c4nc(c(-c5ccc(S(=O)(=O)Nc6ccccc6)cc5)c5ccc2[nH]5)C=C4)C=C3)cc1
inactive: T47D > 31.6 µM | ACHN 11.1 µM | MDA-MB-231 24 µM | NCI-H23 > 31.6 µM | SK-MEL-5 > 31.6 µM | MDA-MB-435 > 31.6 µM | MDA-N > 31.6 µM | SK-MEL-2 > 31.6 µM | UACC-257 26.4 µM | COLO 205 > 31.6 µM | CCRF-CEM > 31.6 µM | PC-3 > 31.6 µM | BT-549 > 31.6 µM | IGROV-1 > 93.3 µM | UO-31 > 31.6 µM | NCI/ADR-RES > 31.6 µM | Hs-578T > 31.6 µM | MCF7 > 31.6 µM | HCC 2998 17.7 µM

COc1ccc(OC)c2sc(N3C(=O)/C(=C/c4ccc(N(C)C)cc4)N=C3c3ccccc3)nc12
inactive: T47D 38.5 µM | ACHN 50.5 µM | MDA-MB-231 > 100 µM | SK-MEL-5 39.2 µM | MDA-MB-435 31.4 µM | MDA-N 22.2 µM | SK-MEL-2 36.9 µM | UACC-257 > 100 µM | COLO 205 > 100 µM | CCRF-CEM 6.04 µM | PC-3 33 µM | BT-549 97.1 µM | IGROV-1 > 100 µM | UO-31 55 µM | NCI/ADR-RES > 100 µM | Hs-578T 91 µM | MCF7 22.3 µM | HCC 2998 > 100 µM

COc1cc(-c2cc(-c3ccccc3)nc(-c3c(OC)ccc4c(C)cc(=O)oc34)c2)cc(OC)c1OC
inactive: T47D > 100 µM | ACHN > 100 µM | MDA-MB-231 > 100 µM | NCI-H23 > 100 µM | SK-MEL-5 > 100 µM | MDA-MB-435 > 100 µM | MDA-N > 100 µM | SK-MEL-2 > 100 µM | UACC-257 > 100 µM | COLO 205 > 100 µM | CCRF-CEM > 100 µM | PC-3 > 100 µM | BT-549 > 100 µM | IGROV-1 > 100 µM | UO-31 > 100 µM | NCI/ADR-RES > 100 µM | Hs-578T > 100 µM | MCF7 74.1 µM | HCC 2998 > 100 µM

Cc1ccc(C(=O)N/N=C2/C(=O)c3c4ccccc4cc4cccc2c34)cc1
inactive: T47D 13.4 µM | ACHN 7.82 µM | MDA-MB-231 37 µM | NCI-H23 24.6 µM | SK-MEL-5 27.5 µM | MDA-MB-435 23.9 µM | MDA-N 37.8 µM | SK-MEL-2 64 µM | UACC-257 > 87.9 µM | COLO 205 31.3 µM | CCRF-CEM 3.98 µM | PC-3 25.3 µM | BT-549 > 100 µM | IGROV-1 15.8 µM | UO-31 17.2 µM | NCI/ADR-RES 30.1 µM | Hs-578T 19.1 µM | MCF7 2.3 µM | HCC 2998 38.8 µM

N=C1/C(=C/c2ccc(F)cc2)C(=O)N=C2SC=NN12
inactive: T47D > 100 µM | ACHN > 100 µM | MDA-MB-231 > 100 µM | NCI-H23 > 100 µM | SK-MEL-5 62.5 µM | MDA-MB-435 83.4 µM | MDA-N 83.2 µM | SK-MEL-2 > 100 µM | UACC-257 > 100 µM | COLO 205 > 100 µM | CCRF-CEM > 100 µM | PC-3 > 100 µM | BT-549 94.6 µM | IGROV-1 > 100 µM | UO-31 > 100 µM | NCI/ADR-RES > 100 µM | Hs-578T > 100 µM | MCF7 > 100 µM | HCC 2998 > 100 µM

COC(=O)C1Cc2cc3c(cc2C1)CCC3
inactive: T47D > 100 µM | ACHN > 100 µM | MDA-MB-231 > 100 µM | NCI-H23 > 100 µM | SK-MEL-5 > 100 µM | MDA-MB-435 > 100 µM | MDA-N > 100 µM | SK-MEL-2 > 100 µM | UACC-257 > 100 µM | COLO 205 > 100 µM | CCRF-CEM > 100 µM | PC-3 > 100 µM | BT-549 > 100 µM | IGROV-1 > 100 µM | UO-31 > 100 µM | NCI/ADR-RES > 100 µM | Hs-578T > 100 µM | MCF7 > 100 µM | HCC 2998 > 100 µM
